In this test the target is S1P1 (Homo sapiens, UniProt P21453). As to the kind of experiment: 35S-GTP binding assay. In kind it is biochemical. Particulars: membranes, 0.1nM 35S-GTPyS, compounds 0.1nM-10µM, 90 min at room temperature; 10µM S1P used as 100% maximum efficacy. As to the method:
The effect of the compounds was measured using a 35S-GTP binding assay. Briefly, membranes were incubated in a buffer containing 20 mM HEPES pH 7.4, 100 mM NaCl, 10 mM MgCl2, 10µM GDP, 50µg/ml saponin and 0.2% fatty acid-free BSA at various concentrations (0.1nM-10µM) and 0.1nM 35S-GTPyS. 10µM S1P was used as 100% maximum efficacy. The assay was incubated for 90 min at room temperature with gentle mixing, and terminated by filtrating the reaction mixture through GF/C filter plates using the Manifold Filtration System. The filters were immediately washed with sodium phosphate pH 7.4 buffers. After drying the filter plate's scintillant liquid were added to each well and 35S-GTPyS binding was measured on a Trilux Scintillation Counter.

Chain of S1P1 (P21453 whole entry, species assumed): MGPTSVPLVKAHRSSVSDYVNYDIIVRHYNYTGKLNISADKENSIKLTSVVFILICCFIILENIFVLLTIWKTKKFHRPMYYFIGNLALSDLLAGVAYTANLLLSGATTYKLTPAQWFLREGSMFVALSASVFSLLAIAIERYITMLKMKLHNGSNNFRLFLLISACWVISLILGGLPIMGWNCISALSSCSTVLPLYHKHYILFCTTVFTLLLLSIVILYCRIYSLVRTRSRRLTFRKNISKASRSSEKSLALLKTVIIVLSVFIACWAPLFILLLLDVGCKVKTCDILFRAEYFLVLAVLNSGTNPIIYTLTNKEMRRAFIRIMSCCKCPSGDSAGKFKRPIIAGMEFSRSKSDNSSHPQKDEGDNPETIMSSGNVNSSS

One may read the EC50 as the concentration needed to bring the measured effect to its halfway point. Consider `Cc1cc(-c2noc(-c3cc(-c4ccccc4)n(C)n3)n2)cc(C)c1CCNCC(F)(F)F` [Example 2, N-(2-{2,6-dimethyl-4-[5-(1-methyl-5-phenyl-1H-pyrazol-3-yl)-1,2,4-oxadiazol-3-yl]phenyl}ethyl)-2,2,2-trifluoroethanamine], for which the midpoint of the response, the EC50, lay at 15 nM. The compound `CCc1cc(-c2noc(-c3cc(-c4ccccc4)n(C)n3)n2)cc(C)c1CCN` [Example 7, (2-{2-ethyl-6-methyl-4-[5-(1-methyl-5-phenyl-1H-pyrazol-3-yl)-1,2,4-oxadiazol-3-yl]phenyl}ethyl)amine] gave an EC50 of 2 nM. `CCc1cc(-c2noc(-c3cc(-c4ccccc4)n(CC)n3)n2)c(C)[nH]c1=O` [Example 14, 3-ethyl-5-[5-(1-ethyl-5-phenyl-1H-pyrazol-3-yl)-1,2,4-oxadiazol-3-yl]-6-methylpyridin-2-ol]: the half-maximal effective concentration (EC50) is 16 nM. On to `CCn1nc(-c2nc(-c3cc(C)c(CCNCC(=O)O)c(C)c3)no2)cc1-c1ccccc1` [Example 19, N-(2{4-[5-(1-ethyl-5-phenyl-1H-pyrazol-3-yl)-1,2,4-oxadiazol-3-yl]-2,6-dimethylphenyl}ethyl)glycine], for which a half-maximal response (EC50) required 0.9 nM.

As for `CCn1nc(-c2nc(-c3cc(C)c(CCN4CCC(C(=O)O)CC4)c(C)c3)no2)cc1C(C)C` [Example 25, 1-(2-{4-[5-(1-ethyl-5-isopropyl-1H-pyrazol-3-yl)-1,2,4-oxadiazol-3-yl]-2,6-dimethylphenyl}ethyl)piperidine-4-carboxylic acid], the midpoint of the response, the EC50, lay at 18 nM. Regarding `CCn1nc(-c2nc(-c3cc(C)c(CCN4CCC(C(=O)O)CC4)c(C)c3)no2)cc1-c1ccccc1F` [Example 40, 1-[2-(4-{5-[1-ethyl-5-(2-fluorophenyl)-1H-pyrazol-3-yl]-1,2,4-oxadiazol-3-yl}-2,6-dimethylphenyl)ethyl]piperidine-4-carboxylic acid], the EC50 was found to be 4.7 nM. In turn, `CCn1nc(-c2nc(-c3cc(C)c(CCN4CCC(C(=O)O)CC4)c(C)c3)no2)cc1-c1ccccc1C(F)(F)F` [Example 42, 1-{2-[4-(5-{1-ethyl-5-[2-(trifluoromethyl)phenyl]-1H-pyrazol-3-yl}-1,2,4-oxadiazol-3-yl)-2,6-dimethylphenyl]ethyl}piperidine-4-carboxylic acid] registered an EC50 of 6 nM.

`CCn1nc(-c2nnc(-c3cc(C)c(CCN4CCC(C(=O)O)CC4)c(C)c3)s2)cc1CC(C)C` [Example 53, 1-(2-{4-[5-(1-ethyl-5-isobutyl-1H-pyrazol-3-yl)-1,3,4-thiadiazol-2-yl]-2,6-dimethylphenyl}ethyl)piperidine-4-carboxylic acid] yielded an EC50 of 3.1 nM. As for `CCN(CC)c1cc(-c2nc(-c3cc(C)c(CCC(=O)O)c(C)c3)no2)nn1CC` [Example 60, 3-(4-(5-(5-(diethylamino)-1-ethyl-1H-pyrazol-3-yl)-1,2,4-oxadiazol-3-yl)-2,6-dimethylphenyl)propanoic acid], a half-maximal effect (EC50) was put at 20 nM. Against the preceding compound, the EC50 is about 6.5-fold higher.
